Assay results: patent US20240279176A1, “SUBSTITUTED TRICYCLIC HETEROCYCLIC COMPOUNDS AS METALLO-BETA-LACTAMASE INHIBITORS” (priority 2021, published 2024)
Read-outs that look alike come from different tables or passages of the source.

Columns and labels:
[1] = target: NDM-1 (Klebsiella pneumoniae, UniProt C7C422); assay: Enzyme activity: IC50 in fluorescence assay with cephalosporin substrate FC5; assay type: biochemical; conditions: 50 pM NDM-1, 1.5 μM FC5, 10 min pre-incubation
Protocol: (§1) The Class B beta-lactamases activities were measured in the presence of the test inhibitors in a fluorescence assay against an in-house synthesized fluorescent cephalosporin substrate FC5 (Berkel, et. al. J. Med. Chem. 2013, 56(17), 6945). The enzymes (NDM-1, IMP-1) and the substrate were diluted in 20 mM HEPES, pH 7.4, supplemented with 300 mM NaCl and 10 μM ZnSO4. In the assay, the final concentration of enzyme was 50 pM, and 100 pM for NDM-1, and IMP-1 respectively, and the final concentration of FC5 was 1.5 μM for NDM-1 and 10 μM for IMP-1. The test inhibitors/compounds were dissolved in dimethylsulfoxide (DMSO) and diluted in the assay with assay buffer (20 mM HEPES, pH 7.4, supplemented with 5% DMSO, 300 mM NaCl and 10 μM ZnSO4), resulting in a final concentration range of 0.008 μM to 25 μM. The assays were performed in 96-well microplate (flat bottom, black). The test inhibitors were incubated with the MBL enzyme for 10 min at room temperature, followed by addition the substrate and the fluorescence was recorded immediately (λex 380 nm, λem 460 nm) on a microplate reader. Using the initial velocity data plotted against the inhibitor concentration, the half-maximal inhibitory concentrations were calculated by an IC50 curve-fitting model in GraphPad Prism 9 software.

[2] = target: IMP-1 (Serratia marcescens, UniProt P52699); assay: as above; assay type: biochemical; conditions: 100 pM IMP-1, 10 μM FC5, 10 min pre-incubation
IMP-1, sequence (P52699 19-246, looked up, species assumed): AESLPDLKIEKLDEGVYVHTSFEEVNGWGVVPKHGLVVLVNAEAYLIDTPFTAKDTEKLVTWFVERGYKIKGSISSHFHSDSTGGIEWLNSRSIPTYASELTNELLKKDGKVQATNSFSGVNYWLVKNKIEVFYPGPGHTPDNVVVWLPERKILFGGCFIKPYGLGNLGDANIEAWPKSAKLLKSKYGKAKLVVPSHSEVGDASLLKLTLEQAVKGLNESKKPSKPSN
Protocol: as §1

[3] = tested on: Klebsiella pneumoniae ATCC BAA-2146; assay: Checkerboard synergy assay in combination with Imipenem; assay type: cell-based; conditions: K. pneumoniae ATCC BAA-2146; for Fold reduction in Imipenem MIC in the presence of compounds (μg/mL) 4: compound at 4 μg/mL; for Fold reduction in Imipenem MIC in the presence of compounds (μg/mL) 8: compound at 8 μg/mL; for Fold reduction in Imipenem MIC in the presence of compounds (μg/mL) 16: compound at 16 μg/mL; for Fold reduction in Imipenem MIC in the presence of compounds (μg/mL) 32: compound at 32 μg/mL
Source text: (§2) The strain included in the study was Klebsiella pneumoniae ATCC BAA-2146 (Himedia®, India) with presence of New Delhi metallo-β-lactamase (NDM-1) gene. The quality control reference strains Escherichia coli ATCC 25922 and Pseudomonas aeruginosa ATCC 27853 were procured from Himedia®, India.
(§3) The fold modulation activity of test compounds, in combination with Imipenem or Meropenem, was checked against Klebsiella pneumoniae ATCC BAA-2146 strain by the broth-microdilution checkerboard synergy assay. The plates contained 5×10^5 CFU/mL bacterial inocula and 2-fold serial dilutions of the antibiotics (128-2 μg/mL) as well as test compounds (32-4 μg/mL) in a total volume of 200 μL of CA-MHB. Dimethyl sulfoxide (DMSO, ≤2.5%) was included as vehicle control. Following 16-18 h of incubation at 37° C., the MICs of antibiotics as well as drug combinations were visually inspected.

[4] = tested on: Klebsiella pneumoniae ATCC BAA-2146; assay: Checkerboard synergy assay in combination with Meropenem; assay type: cell-based; conditions: K. pneumoniae ATCC BAA-2146; for Fold reduction in meropenem MIC in the presence of compounds (μg/mL) 4: compound at 4 μg/mL; for Fold reduction in meropenem MIC in the presence of compounds (μg/mL) 8: compound at 8 μg/mL; for Fold reduction in meropenem MIC in the presence of compounds (μg/mL) 16: compound at 16 μg/mL; for Fold reduction in meropenem MIC in the presence of compounds (μg/mL) 32: compound at 32 μg/mL
Source text: as §2, §3

[5] = tested on: Klebsiella pneumoniae ATCC BAA-2146; assay: Minimum inhibitory concentration (MIC), broth-microdilution (CLSI); assay type: cell-based; conditions: ATCCBAA2146, compound alone, K. pneumoniae ATCC BAA-2146, read-out: Intrinsic MIC
Source text: as §2
MIC values were identified through broth-microdilution in sterilized 96-well polystyrene flat-bottom microtitre plates (Cole-Parmer®) according to the guideline of the Clinical and Laboratory Standards Institute (CLSI) (CLSI; Methods for dilution antimicrobial susceptibility tests for bacteria that grow aerobically; Clinical Laboratory Standards Institute, M07-A09, 2012). This method involves the use of BBL™ Cation-adjusted Mueller-Hinton II Broth (CA-MHB; BD) and the strain (Klebsiella pneumoniae ATCC BAA-2146) concentration was adjusted to 5×10^5 CFU/mL. After 16-18 h of incubation at various concentrations of Imipenem, Meropenem (Alfa Aesar), or test compounds at 37° C., MIC was defined as the lowest concentration of antibiotic or test compound with no visible growth.

NDM-1, sequence (C7C422 29-270, looked up): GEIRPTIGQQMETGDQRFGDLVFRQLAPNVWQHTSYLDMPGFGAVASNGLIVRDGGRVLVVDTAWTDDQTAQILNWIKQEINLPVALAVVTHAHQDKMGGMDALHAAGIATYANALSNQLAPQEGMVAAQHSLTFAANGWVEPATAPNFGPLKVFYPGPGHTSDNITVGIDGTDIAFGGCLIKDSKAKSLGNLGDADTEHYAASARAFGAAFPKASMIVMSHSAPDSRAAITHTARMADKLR

Compound | IC50 [1] [µM] | IC50 [2] [µM] | Fold reduction in Imipenem MIC in the presence of compounds (μg/mL) 4 [3] [fold] | Fold reduction in Imipenem MIC in the presence of compounds (μg/mL) 8 [3] [fold] | Fold reduction in Imipenem MIC in the presence of compounds (μg/mL) 16 [3] [fold] | Fold reduction in Imipenem MIC in the presence of compounds (μg/mL) 32 [3] [fold] | Fold reduction in meropenem MIC in the presence of compounds (μg/mL) 4 [4] [fold] | Fold reduction in meropenem MIC in the presence of compounds (μg/mL) 8 [4] [fold] | Fold reduction in meropenem MIC in the presence of compounds (μg/mL) 16 [4] [fold] | Fold reduction in meropenem MIC in the presence of compounds (μg/mL) 32 [4] [fold] | MIC ([5]; Imipenem series) [µg/mL] | MIC ([5]; meropenem series) [µg/mL]
COc1ccc(-c2c(C(=O)O)[nH]c3c2CCc2ccccc2-3)cc1 [Example 36, 3-(4-Methoxyphenyl)-4,5-dihydro-1H-benzo[g]indole-2-carboxylic Acid] | 2.65 | 18.3 | 2 | 2 | 2 | 4 | 2 | 2 | 4 | 4 | > 64 | > 64
O=C(O)c1[nH]c2c(c1-c1ccc(F)c(F)c1)CCc1ccccc1-2 [Example 37, 3-(3,4-Difluorophenyl)-4,5-dihydro-1H-benzo[g]indole-2-carboxylic Acid] | 0.342 | 3.86 | 2 | 2 | 4 | 4 | 4 | 4 | 4 | 4 | > 64 | > 64
COc1ccc(Cl)cc1-c1c(C(=O)O)[nH]c2c1CCc1ccccc1-2 [Example 38, 3-(5-Chloro-2-methoxyphenyl)-4,5-dihydro-1H-benzo[g]indole-2-carboxylic Acid] | 0.026 | 0.026 | 4 | 4 | 8 | 8 | 4 | 4 | 4 | 8 | > 128 | > 128
CC(C)(C)c1ccc(-c2c(C(=O)O)[nH]c3c2CCc2ccccc2-3)cc1 [Example 39, 3-(4-(tert-Butyl)phenyl)-4,5-dihydro-1H-benzo[g]indole-2-carboxylic Acid] | 0.591 | 72.1 | 2 | 4 | 4 | 4 | 4 | 4 | 4 | 4 | > 64 | > 64
O=C(O)c1[nH]c2c(c1-c1ccccc1F)CCc1ccccc1-2 [Example 41, 3-(2-Fluorophenyl)-4,5-dihydro-1H-benzo[g]indole-2-carboxylic Acid] | 0.256 | 1.34 | 4 | 4 | 8 | 8 | 4 | 4 | 4 | 8 | > 128 | > 128
O=C(O)c1[nH]c2c(c1-c1cccc(F)c1)CCc1ccccc1-2 [Example 42, 3-(3-Fluorophenyl)-4,5-dihydro-1H-benzo[g]indole-2-carboxylic Acid] | 0.079 | 1.15 | 4 | 4 | 8 | 8 | 4 | 4 | 4 | 8 | > 128 | > 128
O=C(O)c1[nH]c2c(c1-c1ccc(Cl)cc1)CCc1ccccc1-2 [Example 43, 3-(4-chlorophenyl)-4,5-dihydro-1H-benzo[g]indole-2-carboxylic Acid] | 0.007 | 1.48 | 4 | 4 | 4 | 8 | 4 | 4 | 4 | 4 | > 128 | > 128
O=C(O)c1[nH]c2c(c1-c1ccccc1Cl)CCc1ccccc1-2 [Example 44, 3-(2-chlorophenyl)-4,5-dihydro-1H-benzo[g]indole-2-carboxylic Acid] | 0.019 | 1.1 | 4 | 4 | 4 | 4 | 4 | 4 | 4 | 4 | > 128 | > 128
O=C(O)c1[nH]c2c(c1-c1ccc(Cl)cc1Cl)CCc1ccccc1-2 [Example 46, 3-(2,4-dichlorophenyl)-4,5-dihydro-1H-benzo[g]indole-2-carboxylic acid] | 0.306 | 10.4 | 4 | 4 | 8 | 16 | 4 | 4 | 8 | 16 | > 128 | > 128
